Experiment: Phase 1 first-in-human study, safety (TEAEs)
Type: in vivo
Excerpt: Study Participants—Volunteers aged 18-58 years, with a body mass index (BMI) of 18-30 kg/m^2, body weight ≥50 kg, and who were considered healthy based on medical history, physical examination, clinical laboratory evaluation, and 12-lead electrocardiogram (ECG) were enrolled in this study. Females were required to be surgically sterile or postmenopausal. Key exclusion criteria were history of, or current, clinically significant medical illness and history of malignancy within 5 years.
Study Design—This phase 1, randomized, double-blind, placebo-controlled, single-center study (NCT03607513; EudraCT 2018-000428-32) was conducted between July 2018 and August 2019 at the Janssen Clinical Pharmacology Unit in Merksem, Belgium.The study comprised two distinct parts; Part 1 examined SAD of compound of Formula (III) and Part 2 assessed MAD of compound of Formula (III).
Safety, tolerability, PK, and BTKO were assessed for six doses of compound of Formula (III) oral solution (4, 12, 36, 100, 200, 400 mg) in participants under fasted conditions. The SAD part comprised 10 cohorts of 8 participants each (FIG. 1). In each cohort receiving compound of Formula (III) oral solution (Cohorts 1-9), 6 participants were randomized to receive compound of Formula (III) and 2 to receive placebo. All participants in Cohort 10 received compound of Formula (III) as an oral capsule. All 10 cohorts included 2 sentinel participants who were dosed ˜24 hours prior to the rest of the cohort. In cohorts receiving compound of Formula (III) oral solution, 1 sentinel participant received compound of Formula (III) and the other received placebo.
Six male escalating dose cohorts received a single oral dose of 4, 12, 36, 100, 200, 400 mg compound of Formula (III) or placebo solution under fasted conditions. Gender effects were assessed in 2 female cohorts whose participants received either a 36 or 100 mg dose of compound of Formula (III) or placebo as an oral solution under fasted conditions. Food effects were evaluated in a male cohort receiving compound of Formula (III) 100 mg or placebo as an oral solution after a high-fat breakfast.
Safety, tolerability, and PK of a solid dose formulation of compound of Formula (III) were assessed in an additional male cohort (Cohort 10) that received 3×35 mg (105 mg) of compound of Formula (III) in the fasted state. Since all the participants received the same dose of compound of Formula (III), this cohort was not blinded.
Safety, tolerability, PK, and BTKO following multiple compound of Formula (III) doses were evaluated in 3 dose escalation cohorts with a total of 18 participants (males: 9, females: 9) receiving active study drug. In each cohort, 3 males and 3 females were randomized to receive 36 mg once-daily (QD), 100 mg QD, or 200 mg QD compound of Formula (III) oral solution and 3 participants (males: 2; female: 1) to receive placebo. Two male participants in each cohort served as sentinel participants: one received compound of Formula (III) and other received placebo ˜48 hours prior to other participants in the cohort. All safety and tolerability data (through the follow-up visit), PK data (through at least 24 hours after last dose administration), and all available PD data were reviewed from each cohort before a decision was made to dose escalate.
Safety—Safety evaluations were based upon the type, incidence, and severity of treatment-emergent adverse events (TEAEs) reported throughout the study, and concomitant medication reporting, clinical laboratory tests, physical examinations, vital sign measurements, and ECGs assessed at pre-defined time points. The TEAEs and serious TEAEs were coded using the Medical Dictionary for Regulatory Activities (MedDRA Version 21.0) and summarized by system-organ class (SOC) and preferred terms.

C=CC(=O)N[C@H]1CCC[C@H]1NC(=O)c1sc2nccc3c2c1NC(=O)N3c1cnc(CC(C)C)cc1C (atropisomer, axis not shown) [compound of Formula (III), N-((1R,2S)-2-Acrylamidocyclopentyl)-5-(S)-(6-isobutyl-4-methylpyridin-3-yl)-4-oxo-4,5-dihydro-3H-1-thia-3,5,8-triazaacenaphthylene-2-carboxamide]
Administration site irritation, n (%) (Part 1, 4 mg fasted): 1 | Headache, n (%) (Part 1, 4 mg fasted): 1 | Patients with ≥1 TEAEs, n (%) (Part 1, 4 mg fasted): 2 | Administration site irritation, n (%) (Part 1, 12 mg fasted): 0 | Headache, n (%) (Part 1, 12 mg fasted): 2 | Patients with ≥1 TEAEs, n (%) (Part 1, 12 mg fasted): 3 | Administration site irritation, n (%) (Part 1, 36 mg fasted): 0 | Headache, n (%) (Part 1, 36 mg fasted): 2 | Patients with ≥1 TEAEs, n (%) (Part 1, 36 mg fasted): 4 | Administration site irritation, n (%) (Part 1, 100 mg fasted): 0 | Headache, n (%) (Part 1, 100 mg fasted): 0 | Patients with ≥1 TEAEs, n (%) (Part 1, 100 mg fasted): 4 | Administration site irritation, n (%) (Part 1, 100 mg fed): 0 | Headache, n (%) (Part 1, 100 mg fed): 1 | Patients with ≥1 TEAEs, n (%) (Part 1, 100 mg fed): 1 | Administration site irritation, n (%) (Part 1, 105 mg solid): 0 | Headache, n (%) (Part 1, 105 mg solid): 1 | Patients with ≥1 TEAEs, n (%) (Part 1, 105 mg solid): 3 | Administration site irritation, n (%) (Part 1, 200 mg fasted): 1 | Headache, n (%) (Part 1, 200 mg fasted): 1 | Patients with ≥1 TEAEs, n (%) (Part 1, 200 mg fasted): 4 | Administration site irritation, n (%) (Part 1, 400 mg fasted): 0 | Headache, n (%) (Part 1, 400 mg fasted): 0 | Patients with ≥1 TEAEs, n (%) (Part 1, 400 mg fasted): 3 | headache, incidence (Part 1, all treated): 13.3% | nasal congestion, incidence (Part 1, all treated): 5% | Administration site irritation, n (%) (Part 1, total N = 60): 2(3.3) | Headache, n (%) (Part 1, total N = 60): 8 (13.3) | Abdominal discomfort, n (%) (Part 2, 36 mg): 1 (16.7) | Abdominal pain, n (%) (Part 2, 36 mg): 0 | Abnormal dreams, n (%) (Part 2, 36 mg): 0 | Administration site irritation, n (%) (Part 2, 36 mg): 1 (16.7) | Back pain, n (%) (Part 2, 36 mg): 1 (16.7) | Cough, n (%) (Part 2, 36 mg): 0 | Dehydration, n (%) (Part 2, 36 mg): 0 | Diarrhea, n (%) (Part 2, 36 mg): 0 | Dizziness, n (%) (Part 2, 36 mg): 0 | Dysgeusia, n (%) (Part 2, 36 mg): 0 | Fatigue, n (%) (Part 2, 36 mg): 0 | Flatulence, n (%) (Part 2, 36 mg): 1 (16.7) | Headache, n (%) (Part 2, 36 mg): 0 | Hot flush, n (%) (Part 2, 36 mg): 0 | Increased bronchial secretion, n (%) (Part 2, 36 mg): 0 | Injection site hematoma, n (%) (Part 2, 36 mg): 0 | Injection site reaction, n (%) (Part 2, 36 mg): 1 (16.7) | Lipase increased, n (%) (Part 2, 36 mg): 0 | Myalgia, n (%) (Part 2, 36 mg): 0 | Nasopharyngitis, n (%) (Part 2, 36 mg): 0 | Nausea, n (%) (Part 2, 36 mg): 0 | Oral dysaesthesia, n (%) (Part 2, 36 mg): 0 | Oropharyngeal pain, n (%) (Part 2, 36 mg): 0 | Paresthesia, n (%) (Part 2, 36 mg): 2 (33.3) | Patients with ≥1 TEAEs, n (%) (Part 2, 36 mg): 4 (66.7) | Regurgitation, n (%) (Part 2, 36 mg): 1 (16.7) | Skin irritation, n (%) (Part 2, 36 mg): 0 | Skin reaction, n (%) (Part 2, 36 mg): 1 (16.7) | Somnolence, n (%) (Part 2, 36 mg): 0 | Vertigo, n (%) (Part 2, 36 mg): 0 | Vessel puncture site hematoma, n (%) (Part 2, 36 mg): 0 | Vision blurred, n (%) (Part 2, 36 mg): 0 | Abdominal discomfort, n (%) (Part 2, 100 mg): 1 (16.7) | Abdominal pain, n (%) (Part 2, 100 mg): 0 | Abnormal dreams, n (%) (Part 2, 100 mg): 0 | Administration site irritation, n (%) (Part 2, 100 mg): 2 (33.3) | Back pain, n (%) (Part 2, 100 mg): 0 | Cough, n (%) (Part 2, 100 mg): 0 | Dehydration, n (%) (Part 2, 100 mg): 0 | Diarrhea, n (%) (Part 2, 100 mg): 1 (16.7) | Dizziness, n (%) (Part 2, 100 mg): 0 | Dysgeusia, n (%) (Part 2, 100 mg): 0 | Fatigue, n (%) (Part 2, 100 mg): 0 | Flatulence, n (%) (Part 2, 100 mg): 0 | Headache, n (%) (Part 2, 100 mg): 0 | Hot flush, n (%) (Part 2, 100 mg): 1 (16.7) | Increased bronchial secretion, n (%) (Part 2, 100 mg): 0 | Injection site hematoma, n (%) (Part 2, 100 mg): 2 (33.3) | Injection site reaction, n (%) (Part 2, 100 mg): 1 (16.7) | Lipase increased, n (%) (Part 2, 100 mg): 0 | Myalgia, n (%) (Part 2, 100 mg): 1 (16.7)

Source: patent US12622910B2, “Inhibitors of Bruton's tyrosine kinase and methods of their use” (Janssen Pharmaceutica NV, priority 2021, dated 2026)
